Source: US20240091324A1, “GASTROINTESTINAL HEALTH COMPOSITION” (priority 2019, published 2024)

Legend:
[1] = tested on: IL-8 release from Caco-2 monolayers; test: Release of IL-8 from polarised Caco-2 monolayers stimulated with LPS, TNF-α, IFN-β; format: cell-based, human
Protocol: Inflammatory model of Caco-2 polarised monolayer stimulated with inflammatory mediators LPS, TNF-α, IFN-β: Polarised Caco-2 models were generated as previously described. When cell cultures reached a baseline TER of >1000/cm^2, the monolayers were stimulated by addition of 0.6 ml containing 50 ng/ml IFN-β, 10 μg/ml LPS and 5 ng/ml TNFα to the basolateral compartment. Immediately after the addition of the stimulation cocktail 0.25 ml of GaRP±0-80 μg/ml bromelain was applied to the apical compartment. After the 24 h incubation culture supernatants from the apical side were collected for quantitation of IL-8.
The human colorectal adenocarcinoma cell-line C2BBe1 was grown and maintained in Dulbecco's modified Eagle's medium (DMEM) supplemented with 10% v/v fetal bovine serum (FBS), 4 mM L-glutamine, 100 U/ml penicillin and […] streptomycin. All experiments were conducted on C2BBe1 cells within 12 passages after thawing.
In an experiment to evaluate the anti-inflammatory effect of bromelain or various GaRP formulations, 0.25 ml of test samples was applied to the apical side for 24 h, at the same time 0.6 ml of a cocktail containing 50 ng/ml IFN+10 ug/ml LPS+5 ng/ml TNF was added to the basolateral side in this model. After the 24 h incubation culture supernatants from the apical side were collected and IL-8 quantitated by ELISA.

[2] = tested on: Bacteria (AIEC obtained from IBD and IBS patients); conditions: menthol was not tested in vitro; published literature; cited from earlier work
Enterocyte = conditions: menthol was not tested in vitro; published literature; cited from earlier work
Macrophage = conditions: menthol was not tested in vitro; published literature; cited from earlier work

Row | Structure (SMILES) | % inhibition of the release of IL-8 Median ± SEM ([1]; formulation or component plus 80 ug/ml bromelain, 24 h) | % increase in anti-inflammatory activity compared to equivalent formulation without bromelain (difference of means) ([1]; plus 80 ug/ml bromelain) | % inhibition of the release of IL-8 Median ± SEM ([1]; without bromelain, test sample apical 24 h, IFN+LPS+TNF cocktail basolateral) | therapeutic effective dose, Target cell Bacteria (fg/cell) [2] | therapeutic effective dose, Target cell Enterocyte (pg/cell) (Enterocyte) | therapeutic effective dose, Target cell Macrophage (pg/cell) (Macrophage)
1 | N[C@@H](Cc1c[nH]c2ccccc12)C(=O)O [L-tryptophan] | 76 ± 2% | 62% | 14 ± 7% |  |  | 
2 | CC1CCC(C(C)C)C(O)C1 (stereo not drawn) [Menthol] |  |  |  | Not relevant | 20 pg/cell | 20 pg/cell
